Experimental findings from patent publication US6743806B2, “Active oxygen scavenger” (Otsuka Pharmaceutical Company, Limited, priority 2002, dated 2004) are described below.

The nature of experiment [1]: Hydroxyl radical scavenging efficacy (Fenton system, DMPO spin trap, EPR). Here is the method: Hydroxyl radical scavenging efficacy of cilostazol was determined in air-saturated phosphate buffer (10 mM) at room temperature. The reaction was initiated by addition of a small aliquot (5 μL) of Fe^2+ solution (10 mM FeSO4 in 10 mM HCl) to a buffer containing cilostazol, H2O2 (0.12 mM) and 5,5-dimethyl-1-pyrroline-N-oxide (DMPO) (1 mM). The sample was transferred quickly to flat quartz electron paramagnetic resonance (EPR) cell, and measurements were started immediately.
The EPR spectra of the spin-adduct of DMPO with the hydroxyl radical: DMPO/.OH was observed when DMPO reacted with hydroxyl radical generated by the Fenton system. The EPR spectra (.OH) are shown in the accompanying FIG. 1. Scavenging of hydroxyl radicals was confirmed by using catalase (0.510 U/ml) (data not shown).

Experiment [2] in a line: Peroxyl radical absorbing capacity (PRAC) assay. The following applies: 1 PRAC unit is the value of 1 μM of trolox, β-phycoerythrin fluorescence, 37° C. Here is the method: According to the method described by Cao et al. (Cao G, Alessio HM, Cutler RG (1993), Oxygen-radical absorbance capacity assay for antioxidants, Free Radic. Biol. Med 14: 303-311), the assay is based on production of peroxyl radicals by 2,2′-azobis(2-amidinopropane) hydrochloride (3 mM), a peroxyl radical generator, with subsequent oxidation of the reporter protein, β-phycoerythrin (16.7 nM) in 24 well plates. Into each sample well, either 20 μl of phosphate buffer or 20 μl of each concentration of cilostazol was included. After adding 2,2′-azobis(2-amidinopropane) hydrochloride, the reaction mixture was incubated at 37° C. Loss of fluorescence was measured every 5 minutes at the emission of 590 nm and excitation of 485 nm using Fluorescence Plate Reader (Bio-Tek Instruments, Inc., Winooski, USA). The PRAC value of the compound is reflected in the increase of area under curve of fluorescence versus time. Trolox was used as a reference for PRAC assay. The fluorescence just prior to addition of the 2,2′-azobis(2-amidinopropane) hydrochloride was estimated as the 100% value for that sample. The PRAC values were calculated by the following equation: [formula]
where 1 PRAC unit is the value of 1 μM of trolox.
The time-dependent decrease of β-phycoerythrin fluorescence in the absence (blank) and the presence of different concentrations of cilostazol is shown, in the accompanying FIG. 2. […]

As for `O=C1CCc2cc(OCCCCc3nnnn3C3CCCCC3)ccc2N1` [cilostazol, 6-[4-(1-cyclohexyl-1H-tetrazol-5-yl)butoxy]-3,4-dihydrocarbostyril], the “DMPO/.OH adduct EPR signals” value in experiment [1] (10^−5 M of cilostazol) is listed as “almost ameliorated”. Also, the IC50 in experiment [1] (DMPO/.OH adduct formation, Fenton system, phosphate buffer 10 mM, room temperature, EPR, read-out: concentration required for inhibiting hydroxyl radical formation (IC50)) stood at 2580 ± 70 nM. In addition, the PRAC value in experiment [2] (10^−4 M cilostazol) stood at 1.938 unit; in experiment [2] (10^−6 M cilostazol) it was 1.325 unit.
